Legend:
[1] = In vitro cytotoxicity against normal fibroblast cells WI38; assay type: cell-based; conditions: human, concentration producing 50% reduction in cell growth
Method: (§1) The heterocyclic compounds, prepared in this study, were evaluated according to standard protocols for their in vitro cytotoxicity against six human cancer cell lines including cells derived from human gastric cancer (NUGC), human colon cancer (DLD1), human liver cancer (HA22T and HEPG2), nasopharyngeal carcinoma (HONE1), human breast cancer (MCF) and normal fibroblast cells (WI38). For comparison purposes, CHS 828, a pyridyl cyanoguanidine, was used as a standard antitumor drug (Figure 2). […] All the synthesized compounds were tested for their cytotoxicity against normal fibroblast cells.
(§2) Fetal bovine serum (FBS) and L-glutamine, were purchased from Gibco Invitrogen Co. (Scotland, UK). RPMI-1640 medium was purchased from Cambrex (East Rutherford, NJ, USA). Dimethyl sulfoxide (DMSO), CHS 828, penicillin, streptomycin and sulforhodamine B (SRB) were purchased from Sigma Chemical Co. (Saint Louis, MO, USA).
(§3) Cell cultures were obtained from the European Collection of Cell Cultures (ECACC, Salisbury, UK) and human gastric cancer (NUGC), human colon cancer (DLD1), human liver cancer (HA22T and HEPG2), human breast cancer (MCF), nasopharyngeal carcinoma (HONE1) and normal fibroblast cells (WI38) were kindly provided by the National Cancer Institute (NCI, Cairo, Egypt). They were grown as a monolayer and routinely maintained in RPMI-1640 medium supplemented with 5% heat inactivated FBS, 2 mM glutamine and antibiotics (penicillin 100 U/mL, streptomycin 100 µg/mL) at 37 °C in a humidified atmosphere containing 5% CO2. Exponentially growing cells were obtained by plating 1.5 × 10^5 cells/mL for the six human cancer cell lines followed by 24 h of incubation. The effect of the vehicle solvent (DMSO) on the growth of these cell lines was evaluated in all the experiments by exposing untreated control cells to the maximum concentration (0.5%) of DMSO used in each assay.

[2] = system: human liver cancer (HA22T); assay: In vitro cytotoxicity against HA22T cells; assay type: cell-based; conditions: liver cancer, concentration producing 50% reduction in cell growth, read-out: Cytotoxicity (IC50 in nM) HA22T
Method: as §1, §2, §3

[3] = system: human liver cancer (HEPG2); assay: In vitro cytotoxicity against HEPG2 cells; assay type: cell-based; conditions: HEPG2, liver cancer, concentration producing 50% reduction in cell growth, read-out: Cytotoxicity (IC50 in nM) HEPG2
Method: as §1, §2, §3

[4] = system: human gastric cancer (NUGC); assay: In vitro cytotoxicity against NUGC cells; assay type: cell-based; conditions: gastric cancer, concentration producing 50% reduction in cell growth, read-out: Cytotoxicity (IC50 in nM) NUGC
Method: as §1, §2, §3

[5] = system: human colon cancer (DLD1); assay: In vitro cytotoxicity against DLD1 cells; assay type: cell-based; conditions: DLD-1, DLDI, colon cancer, concentration producing 50% reduction in cell growth, read-out: Cytotoxicity (IC50 in nM) DLDI
Method: as §1, §2, §3

[6] = system: human breast cancer (MCF); assay: In vitro cytotoxicity against MCF cells; assay type: cell-based; conditions: MCF, breast cancer, concentration producing 50% reduction in cell growth, read-out: Cytotoxicity (IC50 in nM) MCF
Method: as §1, §2, §3

[7] = system: nasopharyngeal carcinoma (HONE1); assay: In vitro cytotoxicity against HONE1 cells; assay type: cell-based; conditions: Homo sapiens; HONE1, nasopharyngeal carcinoma; concentration producing 50% reduction in cell growth; read-out: Cytotoxicity (IC50 in nM) HONE1
Method: as §1, §2, §3

Row | Compound | IC50 [1] [nM] | IC50 [2] [nM] | melting point [°C] | IC50 [3] [nM] | IC50 [4] [nM] | IC50 [5] [nM] | IC50 [6] [nM] | IC50 [7] [nM]
1 | COc1ccc(C2C(Br)=C(c3cc4ccccc4oc3=O)OC(N)=C2C#N)cc1 (centres unmarked) [Compound 6b, 2-Amino-5-bromo-4-(4-methoxyphenyl)-6-(2-oxo-2H-chromen-3-yl)-4H-pyran-3-carbonitrile] | 280 | 2260 | 193 to 195 | 169 | 3320 | 2670 | 2850 | 2850
2 | N#CC1=C(N)OC(c2cc3ccccc3oc2=O)=C(Br)C1c1ccc(Cl)cc1 (centres unmarked) [Compound 6c, 2-Amino-5-bromo-4-(4-chlorophenyl)-6-(2-oxo-2H-chromen-3-yl)-4H-pyran-3-carbonitrile] | 480 | 2270 | 178 to 180 | 683 | 38 | 283 | 89 | 1670
3 | N#CC1=C(N)NC(c2cc3ccccc3oc2=O)=C(Br)C1c1ccccc1 (centres unmarked) [Compound 7a, 2-Amino-5-bromo-6-(2-oxo-2H-chromen-3-yl)-4-phenyl-1,4-dihydropyridine-3-carbonitrile] | 379 | 166 | 171 to 173 | 399 | 38 | 893 | 463 | 423
4 | COc1ccc(C2C(Br)=C(c3cc4ccccc4oc3=O)NC(N)=C2C#N)cc1 (centres unmarked) [Compound 7b, 2-Amino-5-bromo-4-(4-methoxyphenyl)-6-(2-oxo-2H-chromen-3-yl)-1,4-dihydropyridine-3-carbonitrile] | 160 | 783 | 164 to 166 | 738 | 782 | 532 | 409 | 180
5 | N#CC1=C(N)OC(c2cc3ccccc3oc2=O)=C(C#N)C1c1ccccc1 (centres unmarked) [Compound 10a, 2-Amino-6-(2-oxo-2H-chromen-3-yl)-4-phenyl-4H-pyran-3,5-dicarbonitrile] | 417 | 1160 | 173 to 175 | 2770 | 537 | 440 | 2530 | 6270
6 | N#CC1=C(N)NC(c2cc3ccccc3oc2=O)=C(C#N)C1c1ccccc1 (centres unmarked) [Compound 11a, 2-Amino-6-(2-oxo-2H-chromen-3-yl)-4-phenyl-1,4-dihydropyridine-3,5-dicarbonitrile] | 128 | 314 | 133 to 135 | 3350 | 680 | 222 | 4940 | 2320
7 | N#CC1=C(N)NC(c2cc3ccccc3oc2=O)=C(C#N)C1c1ccco1 (centres unmarked) [Compound 11d, 2-Amino-4-(furan-2-yl)-6-(2-oxo-2H-chromen-3-yl)-1,4-dihydropyridine-3,5-dicarbonitrile] | 652 | 137 | 168 to 170 | 3120 | 649 | 3460 | 40 | 1190

Reference: publication PMC6272230, “Uses of 3-(2-Bromoacetyl)-2H-chromen-2-one in the Synthesis of Heterocyclic Compounds Incorporating Coumarin: Synthesis, Characterization and Cytotoxicity” (Molecules, 2015)
